Biological target: T1, TagT (Bacillus subtilis, UniProt Q7WY78)
T1 sequence (Q7WY78 1-322): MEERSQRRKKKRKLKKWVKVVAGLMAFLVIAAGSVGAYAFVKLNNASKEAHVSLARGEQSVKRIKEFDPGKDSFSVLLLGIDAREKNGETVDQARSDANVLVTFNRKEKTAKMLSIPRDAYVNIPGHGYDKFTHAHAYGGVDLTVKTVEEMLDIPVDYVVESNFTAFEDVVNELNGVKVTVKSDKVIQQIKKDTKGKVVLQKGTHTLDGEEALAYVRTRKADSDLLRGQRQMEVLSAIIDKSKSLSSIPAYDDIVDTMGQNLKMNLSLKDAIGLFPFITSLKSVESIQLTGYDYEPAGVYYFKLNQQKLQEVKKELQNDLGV
Assay: transfer of radiolabelled WTA precursor, PAGE autoradiography
Format: biochemical
Settings: acceptor; co-substrate LIIA^WTA

SMILES | transfer of radiolabelled WTA precursor, PAGE autoradiography
CC(=O)N[C@H]1[C@H](O[C@H]2[C@H](O)[C@@H](NC(C)=O)[C@H](O[C@H]3[C@H](O)[C@@H](NC(C)=O)C(O)O[C@@H]3CO)O[C@@H]2CO)O[C@H](CO)[C@@H](O[C@@H]2O[C@H](CO)[C@@H](O[C@@H]3O[C@H](CO)[C@@H](O)[C@H](O)[C@H]3NC(C)=O)[C@H](O)[C@H]2NC(C)=O)[C@@H]1O (some centres unmarked) [n=3, chitin oligosaccharide containing five GlcNAcs] | LcpB and TagT transferred WTA onto chitin oligosaccharides containing five or more sugars
CC(=O)N[C@H]1[C@H](O[C@H]2[C@H](O)[C@@H](NC(C)=O)C(O[C@H]3[C@H](O)[C@@H](NC(C)=O)C(O[C@H]4[C@H](O)[C@@H](NC(C)=O)C(O[C@H]5[C@H](O)[C@@H](NC(C)=O)C(O[C@H]6[C@H](O)[C@@H](NC(C)=O)C(O)O[C@@H]6CO)O[C@@H]5CO)O[C@@H]4CO)O[C@@H]3CO)O[C@@H]2CO)O[C@H](CO)[C@@H](O)[C@@H]1O (some centres unmarked) [n=4, chitin oligosaccharide containing six GlcNAcs] | LcpB and TagT transferred WTA onto chitin oligosaccharides containing five or more sugars
